According to ChEMBL document CHEMBL2074272, “Proton-coupled oligopeptide transport by rat renal cortical brush border membrane vesicles: a functional analysis using ACE inhibitors to determine the isoform of the transporter” (Biochim Biophys Acta, 1998):

How the values were obtained:
[1] = target: T1, Solute carrier family 15 member 1 (Rattus norvegicus) (UniProt P51574); experiment: TP_TRANSPORTER: uptake in Xenopus laevis oocytes; type: functional, cell-based; settings: Oocyte
T1 sequence (whole entry): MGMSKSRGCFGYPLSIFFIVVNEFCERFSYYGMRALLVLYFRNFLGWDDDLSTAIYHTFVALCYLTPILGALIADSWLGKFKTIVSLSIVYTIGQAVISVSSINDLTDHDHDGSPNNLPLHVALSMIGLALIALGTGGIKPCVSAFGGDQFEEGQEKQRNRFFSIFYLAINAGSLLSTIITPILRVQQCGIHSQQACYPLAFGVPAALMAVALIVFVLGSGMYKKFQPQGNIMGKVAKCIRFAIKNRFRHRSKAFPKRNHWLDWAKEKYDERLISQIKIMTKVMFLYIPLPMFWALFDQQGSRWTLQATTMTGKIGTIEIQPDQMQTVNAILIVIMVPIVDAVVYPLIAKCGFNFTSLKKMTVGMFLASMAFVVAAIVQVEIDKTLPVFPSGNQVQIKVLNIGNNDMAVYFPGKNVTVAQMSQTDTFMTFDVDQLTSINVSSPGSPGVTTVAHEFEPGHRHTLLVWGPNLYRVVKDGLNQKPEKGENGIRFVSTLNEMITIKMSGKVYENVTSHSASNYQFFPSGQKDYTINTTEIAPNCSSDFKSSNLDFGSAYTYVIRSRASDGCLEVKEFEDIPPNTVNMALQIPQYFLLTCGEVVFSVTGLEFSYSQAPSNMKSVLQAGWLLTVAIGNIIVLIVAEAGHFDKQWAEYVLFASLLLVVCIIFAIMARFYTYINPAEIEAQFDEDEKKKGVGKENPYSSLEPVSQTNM

[2] = target: T2, Solute carrier family 15 member 1 (Rattus norvegicus, UniProt P51574); experiment: TP_TRANSPORTER: inhibition of D-Phe-L-Gln uptake in Xenopus laevis oocytes; type: functional, cell-based, Oocyte
T2 sequence (P51574 whole entry): T1 sequence (whole entry)

Row | SMILES | Activity [1] | Ki [2] [mM]
1 | NC(=O)CC[C@H](NC(=O)[C@H](N)Cc1ccccc1)C(=O)O | substrate [+] | –
2 | C[C@H](CS)C(=O)N1CCC[C@H]1C(=O)O [CAPTOPRIL] | – | 8.7
3 | CCOC(=O)[C@H](CCc1ccccc1)N[C@@H](C)C(=O)N1CCC[C@H]1C(=O)O [ENALAPRIL] | – | 4.3
